Assay results as given in patent US9221791B2, “Metalloenzyme inhibitor compounds” (Viamet Pharmaceuticals, Inc., priority 2011, dated 2015).
Values after ≈ are worked out from the molar mass of the structure shown.

Legend:
[1] = test system: Puccinia recondita tritici = Puccinia triticina; assay: Fungicidal activity vs. leaf rust on wheat plants; format: in vivo; conditions: wheat (variety Yuma) sprayed at 50 ppm, inoculated on the following day, evaluated 7-9 days later; read-out: Puccinia Rating (% Disease Control @ 50 ppm)
Text: D. Evaluation of Fungicidal Activity Vs. Leaf Rust (Causal Agent Puccinia recondita tritici=Puccinia triticina; Bayer Code PUCCRT). […] Each pot contained 3-8 seedlings. These plants were sprayed until wet with the formulated test compounds. The compounds were formulated at 50 ppm in 10 vol. % acetone plus 90 vol. % Triton X water (deionized water 99.99 wt %+0.01 wt % Triton X100), giving a “formulated test compound.” Formulated test compounds were applied to plants using a turn table sprayer fitted with two opposing air atomization nozzles which delivered approximately 1500 L/ha of spray volume. On the following day, the leaves were inoculated with an aqueous spore suspension of Puccinia recondita tritici and the plants were kept in high humidity overnight to permit spores to germinate and infect the leaf. The plants were then transferred to a greenhouse until disease developed on untreated control plants. Disease severity was evaluated 7-9 days later, depending on the speed of disease development. In each case of Table 3, the Puccinia rating scale is as follows: […]

[2] = test system: Septoria tritici (ATCC 26517); assay: Minimum Inhibitory Concentration (MIC) (Septoria tritici), CLSI-based microdilution; format: cell-based; conditions: Zymoseptoria tritici, ATCC26517, 168 h, S. tritici ATCC 26517; 22° C. for seven days; 50% reduction in growth; read-out: Septoria Rating (MIC)
Method: C. Minimum Inhibitory Concentration (MIC) (Septoria tritici)
Compounds of the present disclosure were assessed for their ability to inhibit the growth of a common strain of the fungal plant pathogen Septoria tritici (ATCC 26517) using a procedure based on a Clinical and Laboratory Standards Institute (CLSI) microdilution assay protocol for filamentous fungi.
Stock solutions of the test compounds and standards were prepared in DMSO at 6400 μg/mL. Each stock solution was used to prepare a 2-fold dilution series ranging from 16 to 0.016 μg/mL (total of 11 compound concentrations) in RPMI-1640 (Roswell Park Memorial Institute) medium containing 3-(N-morpholino)propanesulfonic acid (MOPS) buffer and 2% DMSO. A 100 μL aliquot of the dilutions was added to columns 1 (16 μg/mL compound) through 11 (0.016 μg/mL compound) of a 96-well microtiter plate. This format was replicated in a second row of the microtiter plate. Thus, each microtiter plate could include 11 concentrations of four test or control compounds replicated twice. A 100 μL aliquot of RPMI-1640/MOPS/2% DMSO medium was added to column 12 (no compound control) of the microtiter plate.
A fresh culture of S. tritici was used to prepare a solution of approximately 5×10^4 colony-forming units per milliliter (cfu/mL) in RPMI/MOPS medium without DMSO. A 100 µL aliquot of this solution was added to all 96 wells in the microtiter plate. […] The assay plates were incubated at 22° C. for seven days in the dark without shaking.
In each case of Table 3 the Septoria rating scale is as follows: […]

Compound | pest or weed control at 50 ppm [1] [%] | MIC [2] [µg/mL]
N#Cc1ccc(SCc2ccc(C(F)(F)C(O)(Cn3cnnn3)c3ccc(F)cc3F)nc2)c(F)c1 (centres unmarked) [Compound 90, 4-(((6-(2-(2,4-difluorophenyl)-1,1-difluoro-2-hydroxy-3-(1H-tetrazol-1-yl)propyl)pyridin-3-yl)methyl)thio)-3-fluorobenzonitrile] | 40 to 59 | 1.5 (≈ 2.89 µM)
N#Cc1cccc(OCc2ccc(C(F)(F)C(O)(Cn3cnnn3)c3ccc(F)cc3F)nc2)c1F (centres unmarked) [Compound 89, 3-((6-(2-(2,4-difluorophenyl)-1,1-difluoro-2-hydroxy-3-(1H-tetrazol-1-yl)propyl)pyridin-3-yl)methoxy)-2-fluorobenzonitrile] | 80 to 100 | ≤ 0.5
O=C(c1ccc(C(F)(F)C(O)(Cn2cnnn2)c2ccc(F)cc2F)nc1)c1ccc(Cl)c(F)c1 (centres unmarked) [Compound 71, (4-Chloro-3-fluorophenyl)(6-(2-(2,4-difluorophenyl)-1,1-difluoro-2-hydroxy-3-(1H-tetrazol-1-yl)propyl)pyridin-3-yl)methanone] | 80 to 100 | ≤ 0.5
OC(Cn1cnnn1)(c1ccc(Cl)cc1F)C(F)(F)c1ccc(-n2nccn2)cn1 (centres unmarked) [Compound 28, 1-(5-(2H-1,2,3-Triazol-2-yl)pyridin-2-yl)-2-(4-chloro-2-fluorophenyl)-1,1-difluoro-3-(1H-tetrazol-1-yl)propan-2-ol] | 80 to 100 | ≤ 0.5
OC(Cn1cnnn1)(c1ccc(F)cc1F)C(F)(F)c1ccc(-c2ccc(C(F)(F)F)s2)cn1 (centres unmarked) [Compound 34, 2-(2,4-Difluorophenyl)-1,1-difluoro-3-(1H-tetrazol-1-yl)-1-(5-(5-(trifluoromethyl)thiophen-2-yl)pyridin-2-yl)propan-2-ol] | 80 to 100 | 1.5 (≈ 2.98 µM)
OC(Cn1cnnn1)(c1ccc(F)cc1F)C(F)(F)c1ccc(-c2nccs2)cn1 (centres unmarked) [Compound 38, 2-(2,4-Difluorophenyl)-1,1-difluoro-3-(1H-tetrazol-1-yl)-1-(5-(thiazol-2-yl)pyridin-2-yl)propan-2-ol] | 80 to 100 | ≤ 0.5
N#Cc1ccc(-c2ccc(C(F)(F)C(O)(Cn3cnnn3)c3ccc(F)cc3F)nc2)nc1 (centres unmarked) [Compound 95, 6′-(2-(2,4-difluorophenyl)-1,1-difluoro-2-hydroxy-3-(1H-tetrazol-1-yl)propyl)-[2,3′-bipyridine]-5-carbonitrile] | 80 to 100 | 1.5 to 4 (≈ 3.29 to 8.78 µM)
OC(Cn1cnnn1)(c1ccc(F)cc1F)C(F)(F)c1ccc(-c2ccc(C(F)(F)F)cn2)cn1 (centres unmarked) [Compound 94, 2-(2,4-difluorophenyl)-1,1-difluoro-3-(1H-tetrazol-1-yl)-1-(5-(trifluoromethyl)-[2,3′-bipyridin]-6′-yl)propan-2-ol] | 80 to 100 | ≤ 0.5
O=C(c1ccc(C(F)(F)F)cc1)c1ccc(C(F)(F)C(O)(Cn2cnnn2)c2ccc(F)cc2F)nc1 (centres unmarked) [Compound 66, (6-(2-(2,4-Difluorophenyl)-1,1-difluoro-2-hydroxy-3-(1H-tetrazol-1-yl)propyl)pyridin-3-yl)(4-(trifluoromethyl)phenyl)methanone] | 80 to 100 | ≤ 0.5
OC(Cn1cnnn1)(c1ccc(F)cc1F)C(F)(F)c1ccc(Cc2ccc(Cl)cc2)cn1 (centres unmarked) [Compound 77, 1-(5-(4-Chlorobenzyl)pyridin-2-yl)-2-(2,4-difluorophenyl)-1,1-difluoro-3-(1H-tetrazol-1-yl)propan-2-ol] | 80 to 100 | ≤ 0.5
OC(Cn1cnnn1)(c1ccc(F)cc1F)C(F)(F)c1ccc(-c2ccc(C(F)F)s2)cn1 (centres unmarked) [Compound 33, 1-(5-(5-(Difluoromethyl)thiophen-2-yl)pyridin-2-yl)-2-(2,4-difluorophenyl)-1,1-difluoro-3-(1H-tetrazol-1-yl)propan-2-ol] | 80 to 100 | ≤ 0.5
OC(Cn1cnnn1)(c1ccc(F)cc1F)C(F)(F)c1ccc(C(F)(F)c2ccc(C(F)(F)F)cc2)cn1 (centres unmarked) [Compound 102, 1-(5-(difluoro(4-(trifluoromethyl)phenyl)methyl)pyridin-2-yl)-2-(2,4-difluorophenyl)-1,1-difluoro-3-(1H-tetrazol-1-yl)propan-2-ol] | 80 to 100 | 1.5 to 4 (≈ 2.74 to 7.31 µM)
OC(Cn1cnnn1)(c1ccc(Cl)cc1F)C(F)(F)c1ccc(CC2CC2)cn1 (centres unmarked) [Compound 60, 2-(4-Chloro-2-fluorophenyl)-1-(5-(cyclopropylmethyl)pyridin-2-yl)-1,1-difluoro-3-(1H-tetrazol-1-yl)propan-2-ol] | 80 to 100 | ≤ 0.5
OC(Cn1cncn1)(c1ccc(F)cc1F)C(F)(F)c1ccc(Cl)cn1 (centres unmarked) [Compound 29, 1-(5-Chloropyridin-2-yl)-2-(2,4-difluorophenyl)-1,1-difluoro-3-(1H-1,2,4-triazol-1-yl)propan-2-ol] | 80 to 100 | ≤ 0.5
OC(Cn1cnnn1)(c1ccc(Cl)cc1F)C(F)(F)c1ccc(Br)cn1 (centres unmarked) [Compound 22, 1-(5-Bromopyridin-2-yl)-2-(4-chloro-2-fluorophenyl)-1,1-difluoro-3-(1H-tetrazol-1-yl)propan-2-ol] | 80 to 100 | ≤ 0.5
N#Cc1ccc(OCc2ccc(C(F)(F)C(O)(Cn3cnnn3)c3ccc(F)cc3F)nc2)nc1 (centres unmarked) [Compound 98, 6-((6-(2-(2,4-difluorophenyl)-1,1-difluoro-2-hydroxy-3-(1H-tetrazol-1-yl)propyl)pyridin-3-yl)methoxy)nicotinonitrile] | 80 to 100 | ≤ 0.5
OC(Cn1cnnn1)(c1ccc(F)cc1F)C(F)(F)c1ccccn1 (stereo not drawn) [2(−), 2-(2,4-Difluorophenyl)-1,1-difluoro-1-(pyridin-2-yl)-3-(1H-tetrazol-1-yl)propan-2-ol] | 80 to 100 | ≤ 0.5
OC(Cn1cnnn1)(c1ccc(F)cc1F)C(F)(F)c1ccc(Cc2ccc(C(F)(F)F)cc2)cn1 (centres unmarked) [Compound 73, 2-(2,4-Difluorophenyl)-1,1-difluoro-3-(1H-tetrazol-1-yl)-1-(5-(4-(trifluoromethyl)benzyl)pyridin-2-yl)propan-2-ol] | 80 to 100 | ≤ 0.5
OC(Cn1cnnn1)(c1ccc(F)cc1F)C(F)(F)c1ccc(CC(F)(F)F)cn1 (centres unmarked) [Compound 17, 2-(2,4-Difluorophenyl)-1,1-difluoro-3-(1H-tetrazol-1-yl)-1-(5-(2,2,2-trifluoroethyl)pyridin-2-yl)propan-2-ol] | 80 to 100 | ≤ 0.5
OC(Cn1cnnn1)(c1ccc(F)cc1F)C(F)(F)c1ccc(CCCOCC(F)(F)F)cn1 (centres unmarked) [Compound 45, 2-(2,4-Difluorophenyl)-1,1-difluoro-3-(1H-tetrazol-1-yl)-1-(5-(3-(2,2,2-trifluoroethoxy)propyl)pyridin-2-yl)propan-2-ol] | 80 to 100 | ≤ 0.5
CCOCCCc1ccc(C(F)(F)C(O)(Cn2cnnn2)c2ccc(F)cc2F)nc1 (centres unmarked) [Compound 53, 2-(2,4-Difluorophenyl)-1-(5-(3-ethoxypropyl)pyridin-2-yl)-1,1-difluoro-3-(1H-tetrazol-1-yl)propan-2-ol] | 80 to 100 | ≤ 0.5
O=C(c1ccc(Cl)cc1)c1ccc(C(F)(F)C(O)(Cn2cnnn2)c2ccc(F)cc2F)nc1 (centres unmarked) [Compound 67, (4-Chlorophenyl)(6-(2-(2,4-difluorophenyl)-1,1-difluoro-2-hydroxy-3-(1H-tetrazol-1-yl)propyl)pyridin-3-yl)methanone] | 80 to 100 | ≤ 0.5
OC(Cn1cnnn1)(c1ccc(F)cc1F)C(F)(F)c1ccc(-c2ccc(Cl)cn2)cn1 (centres unmarked) [Compound 93, 1-(5-chloro-[2,3′-bipyridin]-6′-yl)-2-(2,4-difluorophenyl)-1,1-difluoro-3-(1H-tetrazol-1-yl)propan-2-ol] | 80 to 100 | ≤ 0.5
OC(Cn1cnnn1)(c1ccc(F)cc1F)C(F)(F)c1ccc(COC(F)F)cn1 (centres unmarked) [Compound 92, 1-(5-((difluoromethoxy)methyl)pyridin-2-yl)-2-(2,4-difluorophenyl)-1,1-difluoro-3-(1H-tetrazol-1-yl)propan-2-ol] | 80 to 100 | ≤ 0.5
OC(Cn1cnnn1)(c1ccc(F)cc1F)C(F)(F)c1ccc(COc2ncc(C(F)(F)F)cc2Cl)cn1 (centres unmarked) [Compound 100] | 80 to 100 | ≤ 0.5
